Source: US8821898B2, “Active compound combinations having insecticidal and acaricidal properties” (Bayer CropScience AG, priority 2003, dated 2014)

Legend:
Format in all cases: in vivo
Aphis gossypii = Aphis gossypii test (dipped cotton leaves)
Experimental: (§1) To produce a suitable preparation of active compound, 1 part by weight of active compound is mixed with the stated amounts of solvent and emulsifier, and the concentrate is diluted with emulsifier-containing water to the desired concentration.
Cotton leaves (Gossypium hirsutum) which are heavily infested by the cotton aphid (Aphis gossypii) are treated by being dipped into the preparation of active compound of the desired concentration.
After the desired period of time; the kill in % is determined. 100% means that all aphids have been killed; 0% means that none of the aphids have been killed. The determined kill rates are entered into Colby's formula (see page 41).

[1] = tested on: Phaedon cochleariae larvae; test: Phaedon cochleariae larvae test (dipped cabbage leaves)
Experimental: as §1
Cabbage leaves (Brassica oleracea) are treated by being dipped into the preparation of active compound of the desired concentration and are populated with larvae of the mustard beetle (Phaedon cochleariae) while the leaves are still moist.
After the desired period of time, the kill in % is determined. 100% means that all beetle larvae have been killed; 0% means that none of the beetle larvae have been killed. The determined kill rates are entered into Colby's formula (see page 41).

Myzus persicae = Myzus persicae test (dipped cabbage leaves); details: 4 ppm
Experimental: as §1
Cabbage leaves (Brassica oleracea) which are heavily infested by the green peach aphid (Myzus persicae) are treated by being dipped into the preparation of active compound of the desired concentration.
After the desired period of time, the kill in % is determined. 100% means that all aphids have been killed; 0% means that none of the aphids have been killed. The determined kill rates are entered into Colby's formula (see on page 41).

Spodoptera frugiperda = Spodoptera frugiperda test (dipped cabbage leaves)
Experimental: as §1
Cabbage leaves (Brassica oleracea) are treated by being dipped into the preparation of active compound of the desired concentration and are populated with caterpillars of the army worm (Spodoptera frugiperda) while the leaves are still moist.
(§2) After the desired period of time, the kill in % is determined. 100% means that all caterpillars have been killed; 0% means that none of the caterpillars have been killed. The determined kill rates are entered into Colby's formula (see page 41).

[2] = tested on: Plutella xylostella, resistant strain; test: Plutella xylostella test (resistant strain)
Experimental: as §1
Cabbage leaves (Brassica oleracea) are treated by being dipped into the preparation of active compound of the desired concentration and are populated with caterpillars of the diamondback moth (Plutella xylostella, resistant strain) while the leaves are still moist.
as §2

CC(C)N1C(=O)N(c2ccccc2)CS/C1=N\C(C)(C)C [(2-2) buprofezin, buprofezin, reference compound]
Kill rate in % after 7d, found (Aphis gossypii; 20 ppm): 0% | Kill rate in % after 3d, found ([1]; 100 ppm): 20%

N#CCNC(=O)c1cnccc1C(F)(F)F [(2-6) flonicamid, flonicamid, reference compound]
Kill rate in % after 6d, found (Myzus persicae; Table B2): 40% | Kill rate in % after 3d, found (Spodoptera frugiperda; 100 ppm): 5% | Kill rate in % after 6d, found (Aphis gossypii; 20 ppm): 40%

CCOC(=O)OC1=C(c2cc(C)ccc2C)C(=O)NC12CCC(OC)CC2 (stereo not shown) [I-a-4]
Kill rate in % after 6d, found (Myzus persicae; Table B1): 80% | Kill rate in % after 6d, found ([2]; 0.16 ppm): 0% | Kill rate in % after 6d, found ([1]; 4 ppm): 15%

Cc1cc(Cl)cc(C(=O)NC(C)C)c1NC(=O)c1cc(C(F)(F)F)nn1-c1ncccc1Cl [II-1-9]
Kill rate in % after 6d, found (Myzus persicae; Table B1): 30% | Kill rate in % after 6d, found (Myzus persicae; Table B2): 0% | Kill rate in % after 6d, found ([2]; 0.0064 ppm): 0% | Kill rate in % after 3d, found (Spodoptera frugiperda; 0.16 ppm): 45% | Kill rate in % after 7d, found (Aphis gossypii; 4 ppm): 20% | Kill rate in % after 6d, found (Aphis gossypii; 20 ppm): 55% | Kill rate in % after 3d, found ([1]; 0.16 ppm): 5% | Kill rate in % after 6d, found ([1]; 0.16 ppm): 0%
